Reference: article PMC12590273, “Systematic design of DMBT1-derived peptides correlating physicochemical properties and sequence motifs with siRNA delivery and efficacy in cancer therapy” (eBioMedicine, 2025)
Non-standard residues stand in square brackets, D forms with d. Residues, ends and D or L forms follow the SMILES beside them.

Tests used:
[1] = tested on: siRNA (Stealth RNAi Negative Control siRNA); test: Electrophoretic mobility shift assay (EMSA), peptide-siRNA binding/encapsulation; conditions: peptides 10–100 μM mixed with siRNA at 1:10–1:100 molar ratios in RNase-free water, 30 min 37 °C or 1 h 50 °C; 4% agarose gel, MOPS pH 7.5, GelRed
Procedure: Peptides (10–100 μM) were mixed with siRNA at 1:10–1:100 molar ratios in RNase-free water and incubated 30 min at 37 °C (or 1 h at 50 °C for low-binding peptides). Complexes, supplemented with 5% glycerol, were run on 4% agarose gels in MOPS buffer (pH 7.5) at 70 V for 30 min, stained with GelRed, and imaged under UV. FastRuler UltraLow served as the size marker.

[2] = tested on: GAPDH in A375 cells; test: GAPDH silencing by DCPP/GAPDH-siRNA complexes (KDalert kit); assay type: cell-based, human; conditions: 2.5% FBS, 48 h, three biological replicates
Procedure: GAPDH silencing: DCPP/GAPDH-siRNA complexes were prepared as above, diluted in OptiMEM, and added (50 μL) to 96-well plates. A375 and MCF7 cells (2 × 10^3 cells/well) in 50 μL OptiMEM + 5% FBS + 1% P/S were plated onto the complexes (final 100 μL, 2.5% FBS). After 48 h, GAPDH knock-down was measured with the KDalert™ kit.

[3] = tested on: A375 and MCF7 cells; test: Cell internalisation of DCPP/Alexa Fluor 555 siRNA complexes (statements not split by cell line); assay type: cell-based; conditions: Alexa Fluor 555 siRNA 25–100 nM, 24 h, fluorescence normalised to crystal violet; cell line not stated
Procedure: A375 (RRID: CVCL_0132) and MCF7 cells (RRID: CVCL_0031) were obtained from ATCC. MEL-STV cells (here called MelST, RRID: CVCL_9U71) are immortalised human melanocytes generated by introducing SV40 large T antigen and hTERT. They are non-tumorigenic and were kindly provided by Dr. Robert Allan Weinberg (Whitehead Institute, MIT). All cell lines were cultured in DMEM + GlutaMax™ with 5% FBS at 37 °C/5% CO2. Working solutions of Alexa Fluor 555 siRNA were prepared in UltraPure DNase/RNase-Free Distilled Water at concentrations of 100–400 nM, and peptide solutions were prepared to achieve the desired peptide–siRNA binding molar ratios, selected based on the siRNA binding efficiency of each peptide. siRNA was mixed with its respective peptide solution and incubated for 30 min at 37 °C or 1 h at 50 °C, depending on the peptide. After incubation, the complexes were diluted in OptiMEM and added to the wells at 50 μL per well, with final siRNA concentrations ranging from 25 to 100 nM. […] OptiMEM without phenol red was added, and fluorescence was measured using Alexa Fluor 555 (excitation/emission: 553/568 nm, reading: 535/595 nm). Cells were subsequently stained with crystal violet and resuspended in citrate buffer, and absorbance was measured. Crystal violet absorbance was used to normalise the fluorescence signal, accounting for cell density or viability differences.

Compound | siRNA binding / encapsulation (peptide-siRNA binding molar ratio by EMSA) [1] | GAPDH silencing in A375 cells [2] | shape of dose–response curve of cell interaction [3]
SREPRGD | efficiently bound siRNA | significant gene silencing | sigmoid curve with a plateau
SREPRGDK | efficiently bound siRNA | – | –
Ac-GRVEVLRRRRWKPSSPPEEHH-NH2 [D4RA6H, CD44-targeting DMBT1-derived peptide containing the A6 motif] | no detectable siRNA binding | – | –
CC(=O)N[C@@H](CCCCN)C(=O)N1CCC[C@H]1C(=O)N[C@@H](CO)C(=O)N[C@@H](CO)C(=O)N1CCC[C@H]1C(=O)N1CCC[C@H]1C(=O)N[C@@H](CCC(=O)O)C(=O)N[C@@H](CCC(=O)O)C(=O)NCC(=O)N[C@H](CCCNC(=N)N)C(=O)N[C@H](C(=O)N[C@@H](CCC(=O)O)C(=O)N[C@H](C(=O)N[C@@H](CC(C)C)C(=O)N[C@@H](Cc1c[nH]cn1)C(=O)N[C@@H](Cc1c[nH]cn1)C(=O)N[C@@H](Cc1c[nH]cn1)C(=O)N[C@@H](Cc1c[nH]cn1)C(=O)N[C@H](Cc1c[nH]c2ccccc12)C(=O)N[C@@H](CCCNC(=N)N)C(=O)N[C@@H](CCCNC(=N)N)C(=O)N[C@@H](CCCNC(=N)N)C(=O)N[C@@H](CCCNC(=N)N)C(=O)N[C@H](Cc1c[nH]c2ccccc12)C(N)=O)C(C)C)C(C)C [A6DH, Ac-KPSSPPEEGrVEVLHHHHwRRRRw-NH2] (Ac-KPSSPPEEG[dR]VEVLHHHH[dW]RRRR[dW]-NH2) | no detectable siRNA binding | – | –
